Our source for the TGI values is PubChem BioAssay (NCI).

Some test systems named below: MDA-MB-231 breast; NCI/ADR-RES ovarian; HCT-116 colon; 786-0 renal; KM12 colon; T-47D breast; MDA-MB-435; SK-MEL-2 melanoma; SK-MEL-28 melanoma; DU-145 prostate; RPMI-8226 leukemia; K-562 leukemia; RXF 393 renal; NCI-H460 lung; OVCAR-4 ovarian; CAKI-1 renal; SK-OV-3 ovarian; MDA-N; SF-539 CNS; HOP-92 NSCLC.
Holding throughout (experiment): inhibition of tumour cell growth, NCI panel, 48 h

Molecules are shown by their SMILES.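 Grown in 96-well plates, cells were treated for 48 hours with each compound at five concentrations. Insufficient inhibition: endpoint recorded as highest concentration tested. TGI: total growth inhibition.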

As to `Cc1nc2c(cc1C(=O)N/N=C/c1ccc([N+](=O)[O-])cc1)c(=O)n(C)c(=O)n2C`, the TGI in the assay on MDA-MB-231 breast is 65.7 µM; in the assay on NCI/ADR-RES ovarian it was > 100 µM; in the assay with HCT-116 colon, > 100 µM; in the assay on 786-0 renal it was > 100 µM; in the assay on KM12 colon, > 100 µM; with T-47D breast, > 100 µM. Also, the TGI in the assay with MDA-MB-435, in the assay on SK-MEL-2 melanoma, with SK-MEL-28 melanoma, in the assay with DU-145 prostate, in the assay with RPMI-8226 leukemia and in the assay with K-562 leukemia was > 100 µM throughout. Further, the TGI was 65 µM in the assay on RXF 393 renal; > 100 µM in the assay on NCI-H460 lung; > 100 µM in the assay with OVCAR-4 ovarian; > 100 µM in the assay with CAKI-1 renal; > 100 µM with SK-OV-3 ovarian; > 100 µM in the assay on MDA-N.
As to `c1cc2nnc1SCCCSc1ccc(nn1)SCCCSc1ccc(nn1)SCCCS2`, the TGI with MDA-MB-231 breast, in the assay on NCI/ADR-RES ovarian, with HCT-116 colon, with 786-0 renal, in the assay with KM12 colon and in the assay on T-47D breast was > 100 µM each time. Further, the TGI in the assay with MDA-MB-435, with SK-MEL-2 melanoma, in the assay with SK-MEL-28 melanoma, in the assay with DU-145 prostate, in the assay on RPMI-8226 leukemia and with K-562 leukemia was > 100 µM throughout. For the same molecule, the TGI in the assay on RXF 393 renal, in the assay with SF-539 CNS, in the assay with NCI-H460 lung, in the assay with OVCAR-4 ovarian, with CAKI-1 renal and with SK-OV-3 ovarian was > 100 µM each time. The TGI with MDA-N was > 100 µM.
As for `O=C(OC[C@H]1C[C@H]2C(=O)CCC[C@H]2O1)c1ccccc1`, the TGI in the assay on MDA-MB-231 breast, with HOP-92 NSCLC, in the assay with NCI/ADR-RES ovarian, with HCT-116 colon, with 786-0 renal and in the assay with KM12 colon was > 100 µM each time. Also, the TGI in the assay with T-47D breast, in the assay with MDA-MB-435, in the assay with SK-MEL-2 melanoma, with SK-MEL-28 melanoma, in the assay with DU-145 prostate and in the assay on RPMI-8226 leukemia was > 100 µM throughout. For the same molecule, the TGI in the assay on K-562 leukemia, with SF-539 CNS, with NCI-H460 lung, in the assay with OVCAR-4 ovarian, with CAKI-1 renal and in the assay with SK-OV-3 ovarian was > 100 µM throughout. Besides, the TGI with MDA-N is > 100 µM.
`COc1cc(/C=C/c2nc(N)nnc2C)cc(OC)c1OC`: the TGI in the assay with MDA-MB-231 breast is > 100 µM; in the assay with HOP-92 NSCLC it was > 100 µM; in the assay with NCI/ADR-RES ovarian, > 90.2 µM; in the assay with HCT-116 colon, > 53.9 µM; in the assay on 786-0 renal it was > 60.6 µM; in the assay on KM12 colon, > 50.5 µM. Moreover, the TGI with T-47D breast was > 100 µM; in the assay with MDA-MB-435, > 94.7 µM; in the assay with SK-MEL-2 melanoma, > 54.4 µM; in the assay on SK-MEL-28 melanoma, > 100 µM; with DU-145 prostate, > 100 µM; in the assay with RPMI-8226 leukemia, 52.5 µM. The TGI is 71.2 µM with K-562 leukemia; > 64.4 µM in the assay with RXF 393 renal; > 58.5 µM in the assay with NCI-H460 lung; > 73.7 µM in the assay with OVCAR-4 ovarian; > 100 µM in the assay with CAKI-1 renal; > 65.6 µM in the assay on SK-OV-3 ovarian. The TGI in the assay on MDA-N is > 100 µM.
For `CCCCCCCNC(P(=O)(O)O)P(=O)(O)O`, the TGI with MDA-MB-231 breast, in the assay on HOP-92 NSCLC, in the assay with NCI/ADR-RES ovarian, in the assay on HCT-116 colon, in the assay on 786-0 renal and with KM12 colon was > 100 µM in each case. Besides, the TGI with T-47D breast, in the assay with MDA-MB-435, with SK-MEL-2 melanoma, in the assay with SK-MEL-28 melanoma, in the assay on DU-145 prostate and with RPMI-8226 leukemia was > 100 µM in each case. For the same molecule, the TGI in the assay with K-562 leukemia, in the assay with SF-539 CNS, in the assay on NCI-H460 lung, in the assay with OVCAR-4 ovarian, in the assay with CAKI-1 renal and in the assay with SK-OV-3 ovarian was > 100 µM throughout. The TGI with MDA-N is > 100 µM.
Regarding `N#CCCN(CCC#N)c1ccc(C(N=Nc2ccccc2)=Nc2ccc(Cl)cc2)cc1`, the TGI in the assay on MDA-MB-231 breast, with HOP-92 NSCLC, with NCI/ADR-RES ovarian, in the assay on HCT-116 colon, in the assay with 786-0 renal and in the assay on KM12 colon was > 100 µM each time. The TGI in the assay with T-47D breast, in the assay with MDA-MB-435, in the assay with SK-MEL-28 melanoma, in the assay on DU-145 prostate, in the assay on RPMI-8226 leukemia and in the assay with K-562 leukemia was > 100 µM each time. Moreover, the TGI with RXF 393 renal, in the assay on SF-539 CNS, in the assay with NCI-H460 lung, in the assay with OVCAR-4 ovarian, in the assay with CAKI-1 renal and with SK-OV-3 ovarian was > 100 µM each time. For the same molecule, in the assay with MDA-N, the TGI was > 100 µM.
For the molecule `CCOC(=O)C1=c2[nH]c3cccc4cccc(c43)n2C(=O)CC1c1ccccc1` (configuration not stated), the TGI in the assay on MDA-MB-231 breast, with HOP-92 NSCLC, with NCI/ADR-RES ovarian, with HCT-116 colon, in the assay with 786-0 renal and in the assay with KM12 colon was > 100 µM each time. Also, the TGI in the assay with T-47D breast, in the assay on MDA-MB-435, in the assay with SK-MEL-2 melanoma, in the assay with SK-MEL-28 melanoma, in the assay with DU-145 prostate and with RPMI-8226 leukemia was > 100 µM in each case. Besides, the TGI in the assay with K-562 leukemia, in the assay with RXF 393 renal, in the assay with NCI-H460 lung, in the assay on OVCAR-4 ovarian, in the assay with CAKI-1 renal and with SK-OV-3 ovarian was > 100 µM in each case. Moreover, the TGI in the assay with MDA-N was > 100 µM.
